Like-named read-outs stand apart in the source and are kept apart here.
How the values were obtained:
[1] = test system: Hela cells; assay: MTT cytotoxicity assay, Hela; format: cell-based, human; conditions: 48 h, mean ± SD
Protocol: (§1) The anti-proliferative effects of alkaloids were assessed using the MTT assay, as previously described. In brief, 1 × 10^4 cells were seeded in 96-well-plates and incubated with serial dilutions of alkaloids for 48 h (Hela, U2OS) and 72 h (MCF-7). MTT solution was then added and incubated for 2 h. After the addition of DMSO, the plate was read at 570 nm using the Tecan infinite M200 Pro (Tecan, Crailsheim, Germany).
(§2) All experiments were performed at least three times. Data are presented as the mean ± standard deviation. Statistical comparison between controls and different treatments were performed by an unpaired Student’s t-test. Significance was considered at p < 0.05.

[2] = test system: MCF-7 cells; assay: MTT cytotoxicity assay, MCF-7; format: cell-based, human; conditions: mean ± SD
Protocol: as §1, §2

[3] = test system: U2OS cells; assay: MTT cytotoxicity assay, U2OS; format: cell-based, human; conditions: 48 h, mean ± SD
Protocol: as §1, §2

[4] = target: T1, tubulin plus microtubule-associated proteins (MAPs) from porcine brains (Sus scrofa, UniProt P02550+P02554); assay: In vitro tubulin polymerization assay (light scattering at 360 nm); format: biochemical; conditions: for IC50: 5.6 mg/mL tubulin-MAPs, 37 °C, 40 min, read-out: IC50 inhibition of tubulin polymerization in vitro; for effect on tubulin polymerization in vitro: tubulin-MAPs
T1 construct: prepared from porcine brains (freshly obtained from a local slaughter house) by two cycles of polymerization and depolymerization; from tissue; host or cells: porcine brain
T1 sequence (P02550 whole entry): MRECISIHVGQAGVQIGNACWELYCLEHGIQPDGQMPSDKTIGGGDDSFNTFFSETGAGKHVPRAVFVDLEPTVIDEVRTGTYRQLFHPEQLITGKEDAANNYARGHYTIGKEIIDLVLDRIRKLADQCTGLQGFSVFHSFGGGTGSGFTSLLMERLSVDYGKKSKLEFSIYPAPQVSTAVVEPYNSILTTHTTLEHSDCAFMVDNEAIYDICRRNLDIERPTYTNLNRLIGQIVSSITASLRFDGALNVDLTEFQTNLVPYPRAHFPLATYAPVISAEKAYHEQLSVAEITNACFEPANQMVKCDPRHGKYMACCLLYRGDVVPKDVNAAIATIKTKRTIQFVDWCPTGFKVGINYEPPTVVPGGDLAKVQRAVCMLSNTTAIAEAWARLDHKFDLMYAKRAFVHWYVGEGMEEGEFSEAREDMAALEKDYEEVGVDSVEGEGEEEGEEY
T1 sequence (P02554 whole entry): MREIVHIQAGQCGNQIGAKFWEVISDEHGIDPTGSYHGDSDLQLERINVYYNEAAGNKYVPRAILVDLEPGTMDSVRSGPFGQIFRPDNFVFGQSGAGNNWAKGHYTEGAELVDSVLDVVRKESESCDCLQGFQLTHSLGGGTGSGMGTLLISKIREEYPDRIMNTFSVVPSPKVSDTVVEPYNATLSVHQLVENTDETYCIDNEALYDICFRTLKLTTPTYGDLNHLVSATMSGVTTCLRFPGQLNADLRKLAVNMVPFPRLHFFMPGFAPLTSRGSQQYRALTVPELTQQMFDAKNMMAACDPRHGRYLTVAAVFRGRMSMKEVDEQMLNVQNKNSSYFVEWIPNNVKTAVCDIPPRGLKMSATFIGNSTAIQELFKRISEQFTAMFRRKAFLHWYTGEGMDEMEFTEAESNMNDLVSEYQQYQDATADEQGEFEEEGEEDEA
Protocol: Tubulin plus microtubule-associated proteins (MAPs) were prepared from porcine brains (freshly obtained from a local slaughter house) by two cycles of polymerization and depolymerization according to a standard protocol. […] The rate and extent of the polymerization reaction were monitored by light scattering at 360 nm using Tecan infinite M200 Pro.
as §2

[5] = test system: Hela cells; assay: Cell cycle analysis by flow cytometry (propidium iodide); format: cell-based, human
Protocol: Cell cycle analysis was carried out as established in our laboratory. Hela cells (5 × 10^5) were seeded in 6-well plates and treated with different concentrations of alkaloids for 24 h. Cells were then collected, centrifuged and fixed in 70% ice-cold ethanol for at least 8 h. After the washing steps, cells were treated with 0.2 mg/mL RNase A for 30 min at 37 °C and then stained with 0.1 mg/mL propidium iodide. Samples were analyzed using a FACScan flow cytometer (Becton Dickinson, Heidelberg, Germany). Data were analyzed using Cell Quest™ Pro software (Becton Dickinson) and Microsoft Excel 2013 (Microsoft Corporation, Redmond, WA, USA).

[6] = test system: microtubules in U2OS cells; assay: Imaging of microtubule network in α-tubulin-GFP U2OS cells; format: cell-based, human
Protocol: α-Tubulin-GFP U2OS cells (1 × 10^5) were seeded in 24-well plates and grown for 24 h. […] The images were analyzed using BZ-II Analyzer software (version 2.1, Keyence, Neu-Isenburg, Germany).

[7] = test system: microtubules in Hela cells; assay: Immunofluorescence staining of microtubules and spindles in Hela cells; format: cell-based, human; conditions: for effect on mitotic spindles: Hela metaphase cells, IC50, 24 h; for effect on interphase cellular microtubules: Hela, immunofluorescence, IC80
Protocol: (§3) Then, cells were fixed in 4% paraformaldehyde at 4 °C for 20 min and permeabilized by 0.3% (v/v) Triton X-100 for 10 min. Nonspecific binding sites on the coverslips were blocked by incubating them with 5% FBS for 1 h. To stain the microtubules, cells were firstly incubated with 1:100 mouse anti-α-tubulin monoclonal IgG for 1 h and then with 1:200 goat anti-mouse […] for 1 h. Cells were then incubated with […] Atto 390 phalloidin for 45 min to stain the actin filaments and 20 μg/mL propidium iodide for 30 min to stain the cell nucleus/chromosomes. After washing steps, the coverslips were mounted by mowiol. Microtubules, actin filaments and cell nucleus/chromosomes were observed and analyzed using the Keyence BZ-9000 microscope as described before.

[8] = test system: actin filaments in Hela cells; assay: Imaging of actin filaments in Hela cells (actin-RFP, immunofluorescence); format: cell-based, human; conditions: high concentration (IC80)
Protocol: as §3
Hela cells (2 × 10^4) were seeded in 24-well plates and mixed with CellLight® Actin-RFP BacMam 2.0, which is a fusion construct of human actin and TagRFP, providing an accurate and specific targeting to cellular actin filaments. After 16 h of incubation, 200 μL of different concentrations of alkaloids (IC80, IC50) were added into each well, and the cells were analyzed as described above (Section 4.4).

[9] = test system: Hela, MCF-7 and U2OS cells; assay: MTT cytotoxicity, summary over three cell lines; format: cell-based; conditions: Homo sapiens, MCF-7, U2OS
Protocol: as §1, §2

[10] = U2OS α-tubulin-GFP, IC80 and IC50, 2-48 h
[11] = read-out: IC50 values, range over three cell lines
[12] = read-out: IC50 values, range over all three cell lines

Row | Structure (SMILES) | IC50 ([1]; Homo sapiens, HeLa) [µM] | IC50 ([2]; Homo sapiens, MCF7, 72 h) [µM] | IC50 ([3]; Homo sapiens, U2OS) [µM] | IC50 ([4]; mean ± SD) [µM] | effect on cell cycle ([5]; 24 h) | effect on microtubule network [6, 10] | effect on mitotic spindles [7] | effect on actin filaments [8] | IC50 [9, 11] [nM] | IC50 [4] [µM] | further results
1 | COc1ccc2c(c[n+](C)c3c4cc5c(cc4ccc23)OCO5)c1OC [Chelerythrine, chelerythrine] | 3.85 ± 2.1 | 7.63 ± 3.43 | 2.88 ± 0.76 | 206 ± 4.2 | did not change the proportion of mitotic cells | displayed similar effects as sanguinarine | abnormal, but still bipolar spindles | significant reduction of actin filament mass | 920 to 7630 |  | effect on interphase cellular microtubules [7]: significantly reduced the mass of microtubules
2 | CC(=O)O[C@H]1C(=O)[C@@]2(C)[C@H]([C@H](OC(=O)c3ccccc3)[C@]3(O)C[C@H](OC(=O)[C@H](O)[C@@H](NC(=O)c4ccccc4)c4ccccc4)C(C)=C1C3(C)C)[C@]1(OC(C)=O)CO[C@@H]1C[C@@H]2O [Paclitaxel, paclitaxel] | 8e-05 ± 0.0001 | 1.05 ± 0.43 | 0.23 ± 0.1 | 38.2 ± 3.33 |  | promoted the polymerization of microtubules | aberrant, but still bipolar spindles | No apparent changes of actin filaments |  |  | G2/M population ([5]; 0.1 μM, 24 h): 80.37% ± 5.36%
3 | CN1CCc2cc3c(cc2C(=O)Cc2ccc4c(c2C1)OCO4)OCO3 [Protopine, protopine] | 27.5 ± 11.8 | 67.3 ± 9.06 | 62.4 ± 9.9 |  |  | notably enhanced the assembly of the microtubule network | thickened spindle arrays | No apparent changes of actin filaments |  | > 1000 | effect on tubulin polymerization in vitro [4]: did not affect tubulin polymerization; G2/M population ([5]; 250 μM, 24 h): 54.35% ± 11.26%; G2/M population ([5]; 250.9 μM): 54.35% ± 11.26%
4 | COC(=O)C[C@](O)(CCCC(C)(C)O)C(=O)O[C@@H]1C(OC)=C[C@]23CCCN2CCc2cc4c(cc2[C@H]13)OCO4 [Homoharringtonine, homoharringtonine] | 0.00903 ± 0.00038 | 0.00087 ± 0.00045 | 0.003 ± 0.00167 |  | had no impact on the cell cycle | No obvious changes on the cellular microtubule network | did not affect mitotic spindles | No apparent changes of actin filaments |  | > 1000 | effect on tubulin polymerization in vitro [4]: did not affect tubulin polymerization; IC50 [9, 12]: 0.87 to 9.03 nM
5 | COc1ccc2c(c1OC)C(=O)O[C@@H]2[C@H]1c2c(cc3c(c2OC)OCO3)CCN1C [Noscapine, noscapine] | 16.8 ± 9.79 | 35.2 ± 8.18 | 60.9 ± 12.2 |  |  | remarkably depolymerized the microtubule network and reduced its mass | multipolar spindles with chromosome congression failure | No apparent changes of actin filaments |  | > 1000 | G2/M population ([5]; 80 μM, 24 h): 73.42% ± 8.31%
6 | C[n+]1cc2c3c(ccc2c2ccc4cc5c(cc4c21)OCO5)OCO3 [Sanguinarine, sanguinarine] | 1.03 ± 0.04 | 1.24 ± 0.21 | 0.92 ± 0.53 | 48.4 ± 3.73 | did not change the proportion of mitotic cells |  | had no impact on mitotic spindles | significant reduction of actin filament mass | 920 to 7630 |  | effect on microtubule network [6]: disrupted microtubule distribution and altered their morphology; effect on interphase cellular microtubules [7]: significantly reduced the mass of microtubules
7 | CC[C@]1(O)C[C@@H]2CN(CCc3c([nH]c4ccccc34)[C@@](C(=O)OC)(c3cc4c(cc3OC)N(C)[C@H]3[C@@](O)(C(=O)OC)[C@H](OC(C)=O)[C@]5(CC)C=CCN6CC[C@]43[C@@H]65)C2)C1 [Vinblastine, vinblastine] | 2e-05 ± 1e-05 | 7e-05 ± 5e-05 | 0.0001 ± 5e-05 | 1.42 ± 0.05 |  | microtubules were extensively depolymerized and tubulin paracrystals were formed | depolymerized bipolar spindles | No apparent changes of actin filaments |  |  | G2/M population ([5]; 10 nM, 24 h): 78.04% ± 14.78%; IC50 [9, 12]: 0.02 to 0.1 nM
8 | C/C1=C/C(=O)O[C@@H]2C[C@@H](CC[C@H](C)/C=C\CC1)O[C@@](O)([C@@H]1CSC(=O)N1)C2 [Latrunculin B, latrunculin B] |  |  |  |  |  | immediately changed the cell morphology |  | extensive depolymerization of the actin network |  |  | IC50 [1]: 7.13 ± 0.61 µM; IC50 ([2]; 72 h): 36.8 ± 2.25 µM; IC50 [3]: 5.48 ± 0.68 µM; G2/M population ([5]; 7 μM, 24 h): 80.05% ± 11.89%
9 | CN1Cc2c(ccc3c2OCO3)[C@@H]2[C@H]1c1cc3c(cc1C[C@@H]2O)OCO3 [Chelidonine, chelidonine] | 1.13 ± 0.37 | 3.85 ± 0.1 | 3.86 ± 1.99 | 34.5 ± 9.47 |  |  | multipolar spindles with chromosome congression failure | significant reduction of actin filament mass | 920 to 7630 |  | G2/M population ([5]; 2.5 μM, 24 h): 88.27% ± 0.99%; effect on microtubule network [6]: significantly decreased cellular microtubule mass
10 | COc1cc2c(c(OC)c1OC)-c1ccc(OC)c(=O)cc1[C@@H](NC(C)=O)CC2 [Colchicine, colchicine] |  |  |  |  |  | reduced the mass of the microtubule network | completely depolymerized spindle | No apparent changes of actin filaments |  |  | G2/M population ([5]; 0.1 μM, 24 h): 89.66% ± 2.04%
